Assay results from US10174288B2, “Induced pluripotent stem cell model for cardiofaciocutaneous syndrome and uses thereof” (Korea Advanced Institute of Science and Technology, priority 2013, dated 2019).

Columns and labels:
Assay type in all cases: cell-based, human
p-SMAD1 = assay: Western blotting of p-SMAD1 in CFC-embryonic body differentiated with inhibitor; details: 5 μM U0126, 100 nM LDN193189 during embryonic body differentiation; compared with untreated CFC-embryonic body; FIG. 7
Procedure: (§1) Particularly, the colony of CFC-iPS induced by the same manner as described in Example <2-1> was cut into 4 pieces by using […] tissue chopper. The CFC-iPS fragments were distributed in the ultra-low attachment dish, followed by re-suspension in 5 ml of the embryonic body differentiation medium, which was DMED/F12 supplemented with 10% serum replacement (SR). After 4 days of suspension culture, the differentiation of a CFC-iPS-derived embryonic body (CFC-embryonic body) was induced. On day 2 and day 4 from the inducement, the CFC-embryonic body was obtained and the cell morphology was observed under phase contrast microscope. WT-iPS was cultured as the normal control by the same manner as described above, so that the differentiation of a WT-iPS-derived embryonic body (WT-embryonic body) was induced. […] The concentration of the protein was measured by brad-ford assay. […] The expression levels of SMAD1, p-SMAD1, ERK1, p-ERK1, ERK2, and p-ERK2 were quantified by using Image J, the program for the measurement of the pixel intensity, by which the band intensity turned into numerical value. The relative values of p-SMAD1/SMAD1, p-ERK1/ERK1, and p-ERK2/ERK2 were calculated and then the phosphorylation levels of SMAD1, ERK1, and ERK2 were compared with those of the normal control. […]

p-ERK = assay: Western blotting of p-ERK in CFC-embryonic body differentiated with inhibitor; details: 5 μM U0126, 100 nM LDN193189 during embryonic body differentiation; compared with untreated CFC-embryonic body; FIG. 7
Procedure: as §1

CFC-embryonic body = assay: Embryonic body shape under phase contrast microscope; details: inhibitor present during CFC-embryonic body differentiation (LDN193189 100 nM, 4 days); compared with untreated CFC-embryonic body; FIG. 8
Procedure: The CFC-iPS fragments were distributed in the ultra-low attachment dish, followed by re-suspension in 5 ml of the embryonic body differentiation medium, which was DMED/F12 supplemented with 10% serum replacement (SR). After 4 days of suspension culture, the differentiation of a CFC-iPS-derived embryonic body (CFC-embryonic body) was induced. On day 2 and day 4 from the inducement, the CFC-embryonic body was obtained and the cell morphology was observed under phase contrast microscope. WT-iPS was cultured as the normal control by the same manner as described above, so that the differentiation of a WT-iPS-derived embryonic body (WT-embryonic body) was induced. […] 4 days after the inducement started, the CFC-embryonic body was obtained and observed under phase contrast microscope to investigate the embryonic body shape. As for the normal control, WT-iPS was cultured by the same manner as described above to induce the differentiation of a WT-iPS derived embryonic body (WT-embryonic body).

N#CC(=C(N)Sc1ccccc1N)C(C#N)=C(N)Sc1ccccc1N [U0126, 1,4-diamino-2,3-dicyano-1,4-bis(2-aminophenylthio)butadiene]
level of p-SMAD1 in CFC-embryonic body (p-SMAD1): reduced
level of p-ERK in CFC-embryonic body (p-ERK): down regulation
embryonic body shape (CFC-embryonic body): normal unbroken embryonic body shape
